The values below come from patent publication US9708334B2, “Substituted 2,4,5,6-tetrahydropyrrolo[3,4-c]pyrazole and 4,5,6,7-tetrahydro-2H-pyrazolo[4,3-c]pyridine compounds as GlyT1 inhibitors” (DART NEUROSCIENCE (CAYMAN) LTD., priority 2014, dated 2017).

The assay concerns the target T1, GlyT1 (Homo sapiens, UniProt P48067).
T1 construct: expressed in transfected cells
T1 sequence (P48067 1-706): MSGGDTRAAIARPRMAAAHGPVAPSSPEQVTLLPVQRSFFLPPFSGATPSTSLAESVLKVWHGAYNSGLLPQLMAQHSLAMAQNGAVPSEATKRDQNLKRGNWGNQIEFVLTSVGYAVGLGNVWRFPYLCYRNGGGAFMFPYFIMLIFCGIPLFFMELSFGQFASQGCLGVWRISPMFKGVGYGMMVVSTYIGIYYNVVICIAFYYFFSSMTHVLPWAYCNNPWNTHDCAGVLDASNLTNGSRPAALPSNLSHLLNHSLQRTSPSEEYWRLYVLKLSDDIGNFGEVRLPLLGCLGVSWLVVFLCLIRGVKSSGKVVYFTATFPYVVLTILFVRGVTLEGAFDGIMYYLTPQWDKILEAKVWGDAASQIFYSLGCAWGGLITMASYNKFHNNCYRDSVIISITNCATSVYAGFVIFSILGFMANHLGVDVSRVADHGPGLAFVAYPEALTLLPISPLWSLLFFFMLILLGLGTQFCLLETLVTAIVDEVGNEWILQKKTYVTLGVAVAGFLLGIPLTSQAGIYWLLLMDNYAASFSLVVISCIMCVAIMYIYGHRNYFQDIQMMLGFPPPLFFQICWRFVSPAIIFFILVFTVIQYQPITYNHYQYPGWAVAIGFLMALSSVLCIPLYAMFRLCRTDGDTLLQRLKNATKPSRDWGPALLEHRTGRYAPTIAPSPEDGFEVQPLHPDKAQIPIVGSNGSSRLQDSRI
Nature of the assay: Glycine Transporter 1 (GlyT1) uptake assay, scintillation proximity assay of [14C]-glycine uptake. Type of assay: cell-based. The note with it: SPA, four parameter logistic fit, read-out: GlyT1 (pIC50) (converted). In outline: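 [14C]-glycine uptake read by scintillation proximity on a plate counter. IC50 from four-parameter logistic fit of dose-response data.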
A general note: In a scintillation proximity assay essentially only radioactivity close to the scintillant gives light.
In the case of `Cc1cccc(-n2cc3c(n2)CN(C(=O)c2c(O[C@@H](C)C(F)(F)F)ccc(C#N)c2Cl)C3)n1` [Example 19, 2-Chloro-3-[2-(6-methylpyridin-2-yl)-2H 4H 5H 6H-pyrrolo[3,4-c]pyrazole-5-carbonyl]-4-{[(2S)-1 1 1-trifluoropropan-2-yl]oxy}benzonitrile], the IC50 is less than 100 nM.

As for `CC(C)Oc1ccc(S(C)(=O)=O)cc1C(=O)N1Cc2cn(-c3cccc(C(F)(F)F)c3)nc2C1` [Example 47, 5-[5-Methanesulfonyl-2-(propan-2-yloxy)benzoyl]-2-[3-(trifluoromethyl)phenyl]-2H 4H 5H 6H-pyrrolo[3,4-c]pyrazole], the IC50 is less than 100 nM.

As to `COc1c(C#N)ccc(OCC(F)F)c1C(=O)N1Cc2cn(-c3ccc(F)c(C)n3)nc2C1` [Example 534, 4-(2 2-Difluoroethoxy)-3-[2-(5-fluoro-6-methylpyridin-2-yl)-2H 4H 5H 6H-pyrrolo[3,4-c]pyrazole-5-carbonyl]-2-methoxybenzonitrile], the IC50 was 100 to 1000 nM.

For `CCc1cc(-n2cc3c(n2)CN(C(=O)c2cc(C#N)ccc2OC(C)C)C3)ccn1` [Example 368, 3-[2-(2-Ethylpyridin-4-yl)-2H 4H 5H 6H-pyrrolo[3,4-c]pyrazole-5-carbonyl]-4-(propan-2-yloxy)benzonitrile], the IC50 was less than 100 nM.

In the case of `CCS(=O)(=O)c1ccc(-c2cc(F)cc(F)c2)c(C(=O)N2Cc3cn(-c4ccnc(C)c4)nc3C2)c1` [Example 569, 4-{5-[2-(3 5-Difluorophenyl)-5-(ethanesulfonyl)benzoyl]-2H 4H 5H 6H-pyrrolo[3,4-c]pyrazol-2-yl}-2-methylpyridine], the IC50 was less than 100 nM.

Consider `CCS(=O)(=O)c1ccc(OC(C)C)c(C(=O)N2Cc3cn(C4CCCC4)nc3C2)c1` [Example 415, 2-Cyclopentyl-5-[5-(ethanesulfonyl)-2-(propan-2-yloxy)benzoyl]-2H 4H 5H 6H-pyrrolo[3,4-c]pyrazole], for which the IC50 is less than 100 nM.

On to `CC(Oc1ccc(C#N)c(Cl)c1C(=O)N1CCc2c(c(C(F)(F)F)nn2C)C1)C(F)(F)F` (stereo not drawn) [Example 182, 2-Chloro-3-[1-methyl-3-(trifluoromethyl)-1H 4H 5H 6H 7H-pyrazolo[4,3-c]pyridine-5-carbonyl]-4-[(1 1 1-trifluoropropan-2-yl)oxy]benzonitrile], for which the IC50 was 1000 to 10000 nM.

Turning to `COc1c(C#N)ccc(O[C@@H](C)C(F)(F)F)c1C(=O)N1Cc2cn(-c3ncccc3C)nc2C1` [Example 272, 2-Methoxy-3-[2-(3-methylpyridin-2-yl)-2H 4H 5H 6H-pyrrolo[3,4-c]pyrazole-5-carbonyl]-4-{[(2S)-1 1 1-trifluoropropan-2-yl]oxy}benzonitrile], the IC50 is less than 100 nM.

In the case of `COc1c(C#N)ccc(O[C@@H](C)C(F)(F)F)c1C(=O)N1Cc2cn(-c3ccc(F)cc3)nc2C1` [Example 248, 3-[2-(4-Fluorophenyl)-2H 4H 5H 6H-pyrrolo[3,4-c]pyrazole-5-carbonyl]-2-methoxy-4-{[(2S)-1 1 1-trifluoropropan-2-yl]oxy}benzonitrile], the IC50 is less than 100 nM.

Turning to `COc1c(C#N)ccc(O[C@@H](C)C(F)(F)F)c1C(=O)N1Cc2cnn(-c3ccc(F)c(C)n3)c2C1` [Example 297, 3-[1-(5-Fluoro-6-methylpyridin-2-yl)-1H 4H 5H 6H-pyrrolo[3,4-c]pyrazole-5-carbonyl]-2-methoxy-4-{[(2S)-1 1 1-trifluoropropan-2-yl]oxy}benzonitrile], the IC50 is less than 100 nM.

Consider `CC(C)Cn1cc2c(n1)CN(C(=O)c1cc(S(C)(=O)=O)ccc1-c1cccc(F)c1)C2` [Example 427, 5-[2-(3-Fluorophenyl)-5-methanesulfonylbenzoyl]-2-(2-methylpropyl)-2H 4H 5H 6H-pyrrolo[3,4-c]pyrazole], for which the IC50 was less than 100 nM.

On to `CC(C)Oc1ccc(C#N)cc1C(=O)N1Cc2cn(-c3cncc(F)c3)nc2C1` [Example 336, 3-[2-(5-Fluoropyridin-3-yl)-2H 4H 5H 6H-pyrrolo[3,4-c]pyrazole-5-carbonyl]-4-(propan-2-yloxy)benzonitrile], for which the IC50 is 100 to 1000 nM.

On to `COc1c(C#N)ccc(OC(C)C(F)(F)F)c1C(=O)N1Cc2cn(-c3ccc(F)cc3)nc2C(C)(C)C1` (stereo not drawn) [Example 192, 3-[2-(4-Fluorophenyl)-7 7-dimethyl-2H 4H 5H 6H 7H-pyrazolo[4,3-c]pyridine-5-carbonyl]-2-methoxy-4-[(1 1 1-trifluoropropan-2-yl)oxy]benzonitrile], for which the IC50 was 1000 to 10000 nM.

On to `COc1c(C#N)ccc(OC(C)C)c1C(=O)N1Cc2cn(-c3ccccc3)nc2C1` [Example 323, 2-Methoxy-3-{2-phenyl-2H 4H 5H 6H-pyrrolo[3,4-c]pyrazole-5-carbonyl}-4-(propan-2-yloxy)benzonitrile], for which the IC50 is less than 100 nM.

Consider `C[C@H](Oc1ccc(S(C)(=O)=O)cc1C(=O)N1Cc2cn(-c3ccc(F)cc3)nc2C1)C(F)(F)F` [Example 340], for which the IC50 is 100 to 1000 nM.

On to `CC1(COc2ccc(S(C)(=O)=O)cc2C(=O)N2Cc3cn(-c4ccccc4)nc3C2)COC1` [Example 435, 5-{5-Methanesulfonyl-2-[(3-methyloxetan-3-yl)methoxy]benzoyl}-2-phenyl-2H 4H 5H 6H-pyrrolo[3,4-c]pyrazole], for which the IC50 is less than 100 nM.

As to `COc1c(C#N)ccc(OCC(F)F)c1C(=O)N1Cc2cn(-c3ccc(F)cc3)nc2C1` [Example 520, 4-(2 2-Difluoroethoxy)-3-[2-(4-fluorophenyl)-2H 4H 5H 6H-pyrrolo[3,4-c]pyrazole-5-carbonyl]-2-methoxybenzonitrile], the IC50 is less than 100 nM.

In the case of `C[C@H](Oc1ccc(C#N)c(Cl)c1C(=O)N1CCc2nn(-c3ccnc(C(F)(F)F)c3)cc2C1)C(F)(F)F` [Example 240, 2-Chloro-3-{2-[2-(trifluoromethyl)pyridin-4-yl]-2H 4H 5H 6H 7H-pyrazolo[4,3-c]pyridine-5-carbonyl}-4-{[(2S)-1 1 1-trifluoropropan-2-yl]oxy}benzonitrile], the IC50 was 100 to 1000 nM.

`COc1c(C#N)ccc(O[C@@H](C)C(F)(F)F)c1C(=O)N1CCc2nn(-c3cccnc3)cc2C1` [Example 237, 2-Methoxy-3-[2-(pyridin-3-yl)-2H 4H 5H 6H 7H-pyrazolo[4,3-c]pyridine-5-carbonyl]-4-{[(2S)-1 1 1-trifluoropropan-2-yl]oxy}benzonitrile]: the IC50 is 100 to 1000 nM.

Consider `C[C@H](Oc1ccc(C#N)c(Cl)c1C(=O)N1Cc2cn(-c3ccc(F)cc3)nc2C1)C(F)(F)F` [Example 249, 2-Chloro-3-[2-(4-fluorophenyl)-2H 4H 5H 6H-pyrrolo[3,4-c]pyrazole-5-carbonyl]-4-{[(2S)-1 1 1-trifluoropropan-2-yl]oxy}benzonitrile], for which the IC50 was less than 100 nM.

Consider `Cc1nc(-n2cc3c(n2)CN(C(=O)c2c(O[C@@H](C)C(F)(F)F)ccc(C#N)c2Cl)C3)cn1C` [Example 282, 2-Chloro-3-[2-(1 2-dimethyl-1H-imidazol-4-yl)-2H 4H 5H 6H-pyrrolo[3,4-c]pyrazole-5-carbonyl]-4-{[(2S)-1 1 1-trifluoropropan-2-yl]oxy}benzonitrile], for which the IC50 was 100 to 1000 nM.

With `CC(Oc1ccc(C#N)c(Cl)c1C(=O)N1CCc2c(cnn2-c2ccc(F)cc2F)C1)C(F)(F)F` (stereo not drawn) [Example 179, 2-Chloro-3-[1-(2 4-difluorophenyl)-1H 4H 5H 6H 7H-pyrazolo[4,3-c]pyridine-5-carbonyl]-4-[(1 1 1-trifluoropropan-2-yl)oxy]benzonitrile], the IC50 is 100 to 1000 nM.

Regarding `CS(=O)(=O)c1ccc(N2CCCCC2)c(C(=O)N2CCc3c(c(C(F)(F)F)nn3-c3ccccc3)C2)c1` [Example 165, 1-{4-Methanesulfonyl-2-[1-phenyl-3-(trifluoromethyl)-1H 4H 5H 6H 7H-pyrazolo[4,3-c]pyridine-5-carbonyl]phenyl}piperidine], the IC50 was 1000 to 10000 nM.

As for `Cc1cccc(-n2cc3c(n2)CN(C(=O)c2cc(S(C)(=O)=O)ccc2OCC2(C)COC2)C3)c1` [Example 437, 5-{5-Methanesulfonyl-2-[(3-methyloxetan-3-yl)methoxy]benzoyl}-2-(3-methylphenyl)-2H 4H 5H 6H-pyrrolo[3,4-c]pyrazole], the IC50 is less than 100 nM.

For the compound `COc1c(C#N)ccc(O[C@@H](C)C(F)(F)F)c1C(=O)N1CCc2nn(-c3ccc(F)cn3)cc2C1` [Example 225, 3-[2-(5-Fluoropyridin-2-yl)-2H 4H 5H 6H 7H-pyrazolo[4,3-c]pyridine-5-carbonyl]-2-methoxy-4-{[(2S)-1 1 1-trifluoropropan-2-yl]oxy}benzonitrile], the IC50 is 100 to 1000 nM.

In the case of `CC(C)S(=O)(=O)c1ccc(O[C@@H](C)C(F)(F)F)c(C(=O)N2Cc3cn(-c4cccc(C(F)(F)F)c4F)nc3C2)c1` [Example 86, 2-[2-Fluoro-3-(trifluoromethyl)phenyl]-5-[5-(propane-2-sulfonyl)-2-{[(2S)-1 1 1-trifluoropropan-2-yl]oxy}benzoyl]-2H 4H 5H 6H-pyrrolo[3,4-c]pyrazole], the IC50 was 100 to 1000 nM.

As to `CC(C)Oc1ccc(S(C)(=O)=O)cc1C(=O)N1Cc2cn(C3CCCC3)nc2C1` [Example 406, 2-Cyclopentyl-5-[5-methanesulfonyl-2-(propan-2-yloxy)benzoyl]-2H 4H 5H 6H-pyrrolo[3,4-c]pyrazole], the IC50 is less than 100 nM.
